Test results published in patent publication US20250002514A1, “AMORPHOUS FORM OF BISMUTH-1,2-ETHANEDITHIOL AND METHODS OF MAKING” (Microbion Corporation, priority 2021, published 2025).
Like-named read-outs stand apart in the source and are kept apart here.

Tests used:
[1] = system: Pseudomonas aeruginosa strain PA01; assay: Bacterial killing curves with and without 10% cystic fibrosis patient sputum; format: cell-based
Procedure: Bacterial killing curves with BisEDT and BisBDT were performed in the presence of […] cystic fibrosis patient sputum in order to determine whether the test compounds are potentially inactivated by sputum. The assay is described in King P, Lomovskaya O, Griffith D C, Burns J L, Dudley M N. In vitro pharmacodynamics of levofloxacin and other aerosolized antibiotics under multiple conditions relevant to chronic pulmonary infection in cystic fibrosis. Antimicrob Agents Chemother, 54:143-8, 2010.
Sputum was collected from cystic fibrosis (CF) patient volunteers without recent antibiotic exposure after appropriate IRB approval. Sputum was sterilized by UV irradiation and sterilization was confirmed by culture. An overnight culture of Pseudomonas aeruginosa strain PA01 was used to inoculate fresh cultures in cation-adjusted Mueller-Hinton broth or cation-adjusted Mueller-Hinton broth plus 10% CF patient sputum. Drugs were added to individual culture tubes with and without sputum at the following final concentrations: • BisEDT: 0.1 μg/mL, 2 μg/mL, and 20 μg/mL • BisBDT: 0.1 μg/mL. 4 μg/mL, and 20 μg/mL
Tobramycin at 1 μg/mL was used as a comparator drug control known to be partially inactivated by patient sputum. Cultures were incubated with shaking at 37° C. and aliquots were removed every hour for quantitation of colony forming units per mL (CFU/mL) by serial dilution and plating on tryptic soy agar for a total of 6 hours. CFU were counted after incubation of the plates overnight at 37° C.

[2] = BisEDT single-dose rat PK studies comparing inhalation, IV and oral dosing; format: in vivo
Procedure: Based on existing in vivo and in vitro toxicology data as well as rat PK and in vitro MIC data, BisEDT suspension for inhalation can be reliably administered at doses providing efficacious lung levels that are tolerated, and it is therefore a viable clinical development candidate. […] 24 hours after single inhalation dose 4,093 ng/g was measured in the lung tissue (which equates to 123 μg/mL in lung fluid) and 4 days (96 hrs) after single dose 2,600 ng/g in lung tissue (which equates to 78 μg/mL in lung fluid). Without being bound by any particular theory, it is believed BisEDT's low solubility provides slow dissolution and long exposure on lung surface fluids with limited systemic exposure via diffusion through lung epithelium. The lung appears to act as a depot for slow systemic exposure with about 10× lower systemic levels than seen in the lung. The terminal phase of the IV data appears to show slow elimination after initial tissue distribution (FIG. 10).

[3] = Nose-only inhalation exposure in F344 rats: whole blood and lung BisEDT concentration (ICP-MS bismuth as surrogate); format: in vivo; conditions: rat; for concentration at 8 h: nominal time 8 hr; for concentration at 12 h: nominal time 12 hr; for concentration at 24 h: nominal time 24 hr; for concentration at 30 h: nominal time 30 hr
Procedure: Inhalation Exposure: The initial exposure of BisEDT (Bismuth-1,2-ethanedithiol) was formulated as a solution at 100 mg/mL in suspension in 0.5% Tween 80, 10 mM sodium phosphate, pH 7.4, in NaCl (adjusted to approximately 300 mOsm). Aerosols were generated with a commercial compressed air jet nebulizer, Pad LC Plus, operated with an inlet pressure of 20 psi. The aerosols were transitioned into a rodent nose-only inhalation exposure system. The exposure system was operated with an inlet air flow of […] and an exhaust air flow of −5 L/min.
Detailed gross necropsies were performed on all animals (found dead, moribund, or scheduled necropsy) and consisted of a complete external and internal examination including body orifices and cranial, thoracic, and abdominal organs and tissues. All gross findings will be recorded in descriptive terms. […] Lungs collected and weighed.
Tables 6 and 7 below show whole blood BisEDT versus time data and lung BisEDT concentration at sacrifice time data respectively.

[4] = both sexes, F344, whole blood, inhaled, single inhalation dose 47 μg/kg, read-out: Whole blood Mean BisEDT Conc
[5] = both sexes, F344, whole blood, inhaled, single inhalation dose 124 μg/kg, read-out: Whole blood Mean BisEDT Conc
[6] = both sexes, F344, whole blood, inhaled, single inhalation dose 400 μg/kg, read-out: Whole blood Mean BisEDT Conc
[7] = both sexes, F344, whole blood, inhaled, single inhalation dose 3000 μg/kg, read-out: Whole blood Mean BisEDT Conc

## C1C[S][Bi]([S]CC[S][Bi]2[S]CC[S]2)[S]1 [BisEDT, Bismuth-1,2-ethanedithiol]
[1]; 0.1 μg/mL, 6 hour assay
  Bactericidal activity against PA01 at 0.1 μg/mL: not bactericidal
[1]; 10% CF patient sputum in cation-adjusted Mueller-Hinton broth
  Effect of CF patient sputum on bactericidal activity: partially inhibited
[1]; overall conclusion of killing curves
  Bactericidal activity against Pseudomonas aeruginosa strain PA01 in this assay: bactericidal
[2]; 100 μg/kg inhalation and IV and 250 μg/kg oral, single dose
  Tolerability: tolerated
[2]; after inhalation dosing
  Systemic levels lower than seen in the lung (fold): about 10 ×
[2]; single 100 μg/kg IV dose
  Duration of initial distribution into tissues after IV dosing (biphasic pattern): 18 h
  Half-life of lung levels after IV dosing: about 24 hour
  Lung levels after IV dosing vs inhalation group: < 5%
[2]; single 100 μg/kg inhalation dose
  Blood exposure after inhalation dosing: sustained, moderate, blood exposure with relatively stable concentrations across time
[2]; single 250 μg/kg oral dose
  Blood concentrations after oral dosing: very low, but sustained and measurable
  Lung levels after oral dosing: no lung levels
[2]; single inhalation dose (100 μg/kg lung deposited)
  Half-life in lung tissue after inhalation dosing: about 4 days
[3]; [4]
  concentration at 8 h: 114 ng/mL
  concentration at 12 h: 98 ng/mL
  concentration at 24 h: 282 ng/mL
  concentration at 30 h: 373 ng/mL
[3]; [5]
  concentration at 8 h: 247 ng/mL
  concentration at 12 h: 187 ng/mL
  concentration at 24 h: 571 ng/mL
  concentration at 30 h: 668 ng/mL
[3]; [6]
  concentration at 8 h: 1700 ng/mL
  concentration at 12 h: 1250 ng/mL
  concentration at 24 h: 2700 ng/mL
  concentration at 30 h: 2740 ng/mL
[3]; both sexes, F344, whole blood, inhaled, single inhalation dose 3000 μg/kg, nominal time 1 hr, read-out: Whole blood Mean BisEDT Conc
  concentration at 1 h: 485 ng/mL
[3]; both sexes, F344, whole blood, inhaled, single inhalation dose 3000 μg/kg, nominal time 2 hr, read-out: Whole blood Mean BisEDT Conc
  concentration at 2 h: 2500 ng/mL
[3]; [7]
  concentration at 8 h: 6570 ng/mL
  concentration at 24 h: 20500 ng/mL
[3]; single inhalation dose 47 μg/kg, sac time 30 hr
  Lung Mean BisEDT Conc at sacrifice: 4.8 ng/g
[3]; single inhalation dose 124 μg/kg, sac time 30 hr
  Lung Mean BisEDT Conc at sacrifice: 5.9 ng/g
[3]; single inhalation dose 400 μg/kg, sac time 30 hr
  Lung Mean BisEDT Conc at sacrifice: 12.1 ng/g
[3]; single inhalation dose 3000 μg/kg, sac time 24 hr
  Lung Mean BisEDT Conc at sacrifice: 82.3 ng/g

## NC[C@H]1O[C@H](O[C@H]2[C@H](O)[C@@H](O[C@H]3O[C@H](CO)[C@@H](O)[C@H](N)[C@H]3O)[C@H](N)C[C@@H]2N)[C@H](N)C[C@@H]1O [tobramycin, reference compound]
[1]; tobramycin 1 μg/mL, 10% CF patient sputum, most time points
  CFU higher in cultures with sputum compared to cultures without sputum: 0.5-1 log CFU/mL
